Experimental data published in ChEMBL document CHEMBL5291721, “A preclinical secondary pharmacology resource illuminates target-adverse drug reaction associations of marketed drugs” (Nat Commun, 2023).

Tests used:
Adenosine receptor A2a = Adenosine receptor A2a (Homo sapiens, UniProt P29274)
[1] = target: T1, Alpha-2C adrenergic receptor (Homo sapiens, UniProt P18825); format: functional
T1 sequence (P18825 whole entry): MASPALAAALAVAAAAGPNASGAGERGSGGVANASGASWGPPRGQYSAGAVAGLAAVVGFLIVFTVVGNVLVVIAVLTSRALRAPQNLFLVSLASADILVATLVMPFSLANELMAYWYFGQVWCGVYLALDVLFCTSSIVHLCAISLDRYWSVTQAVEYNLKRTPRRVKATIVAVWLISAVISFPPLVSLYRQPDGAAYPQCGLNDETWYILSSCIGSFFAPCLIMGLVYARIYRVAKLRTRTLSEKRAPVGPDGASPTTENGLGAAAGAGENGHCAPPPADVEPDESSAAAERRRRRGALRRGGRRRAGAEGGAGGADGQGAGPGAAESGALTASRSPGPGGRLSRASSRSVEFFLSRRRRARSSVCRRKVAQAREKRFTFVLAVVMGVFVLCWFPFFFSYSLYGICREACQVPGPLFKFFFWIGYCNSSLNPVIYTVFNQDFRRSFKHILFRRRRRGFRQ

[2] = target: T2, Gastrin/cholecystokinin type B receptor (Homo sapiens, UniProt P32239)
T2 sequence (P32239 whole entry): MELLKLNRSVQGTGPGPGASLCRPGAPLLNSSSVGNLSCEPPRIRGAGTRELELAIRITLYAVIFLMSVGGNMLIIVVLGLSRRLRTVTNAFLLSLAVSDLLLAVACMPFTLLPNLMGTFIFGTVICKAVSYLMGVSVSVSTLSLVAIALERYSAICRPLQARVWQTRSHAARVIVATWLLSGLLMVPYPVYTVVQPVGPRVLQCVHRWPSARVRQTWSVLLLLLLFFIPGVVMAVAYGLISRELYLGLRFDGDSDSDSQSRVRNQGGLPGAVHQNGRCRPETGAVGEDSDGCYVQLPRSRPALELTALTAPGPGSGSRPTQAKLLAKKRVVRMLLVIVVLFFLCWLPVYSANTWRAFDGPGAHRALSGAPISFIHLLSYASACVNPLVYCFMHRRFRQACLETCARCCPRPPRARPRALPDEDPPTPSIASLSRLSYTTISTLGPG

[3] = target: T3, Muscarinic acetylcholine receptor M1 (Homo sapiens, UniProt P11229); format: functional
T3 sequence (P11229 whole entry): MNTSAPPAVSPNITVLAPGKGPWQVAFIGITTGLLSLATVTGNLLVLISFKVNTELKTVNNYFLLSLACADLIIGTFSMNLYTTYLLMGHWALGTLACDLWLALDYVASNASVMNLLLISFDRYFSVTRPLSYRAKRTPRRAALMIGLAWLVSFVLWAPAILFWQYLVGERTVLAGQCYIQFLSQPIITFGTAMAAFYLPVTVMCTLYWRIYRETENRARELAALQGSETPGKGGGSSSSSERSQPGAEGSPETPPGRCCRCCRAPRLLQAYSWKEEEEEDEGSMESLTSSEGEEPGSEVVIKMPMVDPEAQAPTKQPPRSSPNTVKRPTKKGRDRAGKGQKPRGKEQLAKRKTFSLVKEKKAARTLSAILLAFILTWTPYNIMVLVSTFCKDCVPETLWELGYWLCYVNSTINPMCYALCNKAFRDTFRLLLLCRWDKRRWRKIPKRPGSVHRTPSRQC

[4] = target: T4, Muscarinic acetylcholine receptor M2 (Homo sapiens, UniProt P08172); format: functional, cell-based
T4 sequence (P08172 whole entry): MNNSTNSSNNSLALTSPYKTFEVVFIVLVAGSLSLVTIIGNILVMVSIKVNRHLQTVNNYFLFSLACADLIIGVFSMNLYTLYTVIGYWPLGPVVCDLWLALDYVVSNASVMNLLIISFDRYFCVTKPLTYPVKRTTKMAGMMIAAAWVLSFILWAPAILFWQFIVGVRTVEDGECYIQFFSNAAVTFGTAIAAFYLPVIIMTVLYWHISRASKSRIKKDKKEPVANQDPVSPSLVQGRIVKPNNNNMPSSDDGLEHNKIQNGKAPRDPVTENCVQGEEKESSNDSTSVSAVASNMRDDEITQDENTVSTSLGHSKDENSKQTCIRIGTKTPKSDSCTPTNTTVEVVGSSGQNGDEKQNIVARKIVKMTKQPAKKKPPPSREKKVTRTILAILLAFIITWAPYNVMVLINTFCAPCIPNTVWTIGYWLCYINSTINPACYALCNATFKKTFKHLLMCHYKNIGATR

Cannabinoid receptor 1 = Cannabinoid receptor 1 (Homo sapiens, UniProt P21554); format: functional, cell-based
Sequence of Cannabinoid receptor 1 (P21554 whole entry): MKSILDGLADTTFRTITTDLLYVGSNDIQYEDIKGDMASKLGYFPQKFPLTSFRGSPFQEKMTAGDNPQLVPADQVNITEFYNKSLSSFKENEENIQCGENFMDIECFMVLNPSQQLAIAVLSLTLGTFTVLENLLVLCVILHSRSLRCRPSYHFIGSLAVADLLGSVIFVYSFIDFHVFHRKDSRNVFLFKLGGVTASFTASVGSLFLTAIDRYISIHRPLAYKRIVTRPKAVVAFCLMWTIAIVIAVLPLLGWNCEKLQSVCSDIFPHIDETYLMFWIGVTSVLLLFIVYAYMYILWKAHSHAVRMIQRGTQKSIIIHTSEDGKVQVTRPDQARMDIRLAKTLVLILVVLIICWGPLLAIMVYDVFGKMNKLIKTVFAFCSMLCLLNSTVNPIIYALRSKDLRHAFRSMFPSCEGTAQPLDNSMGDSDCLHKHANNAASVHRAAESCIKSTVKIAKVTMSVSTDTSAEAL

[5] = target: Gamma-aminobutyric acid receptor subunit alpha-1 (Rattus norvegicus, UniProt P62813)
Sequence of Gamma-aminobutyric acid receptor subunit alpha-1 (P62813 whole entry): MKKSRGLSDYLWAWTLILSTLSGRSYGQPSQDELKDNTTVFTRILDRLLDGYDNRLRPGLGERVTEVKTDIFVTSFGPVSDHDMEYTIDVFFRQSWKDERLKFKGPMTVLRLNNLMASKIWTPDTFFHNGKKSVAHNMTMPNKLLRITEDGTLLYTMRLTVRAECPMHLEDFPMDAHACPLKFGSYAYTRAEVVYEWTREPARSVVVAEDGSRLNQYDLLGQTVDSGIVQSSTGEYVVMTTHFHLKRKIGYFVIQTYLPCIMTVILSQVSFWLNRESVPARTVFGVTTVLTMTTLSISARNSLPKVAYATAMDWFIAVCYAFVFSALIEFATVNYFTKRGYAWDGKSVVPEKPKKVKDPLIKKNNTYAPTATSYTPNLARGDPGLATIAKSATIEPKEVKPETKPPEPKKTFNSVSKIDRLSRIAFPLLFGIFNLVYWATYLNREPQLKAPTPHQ

[6] = target: Growth hormone secretagogue receptor type 1 (Homo sapiens, UniProt Q92847)
Sequence of Growth hormone secretagogue receptor type 1 (Q92847 whole entry): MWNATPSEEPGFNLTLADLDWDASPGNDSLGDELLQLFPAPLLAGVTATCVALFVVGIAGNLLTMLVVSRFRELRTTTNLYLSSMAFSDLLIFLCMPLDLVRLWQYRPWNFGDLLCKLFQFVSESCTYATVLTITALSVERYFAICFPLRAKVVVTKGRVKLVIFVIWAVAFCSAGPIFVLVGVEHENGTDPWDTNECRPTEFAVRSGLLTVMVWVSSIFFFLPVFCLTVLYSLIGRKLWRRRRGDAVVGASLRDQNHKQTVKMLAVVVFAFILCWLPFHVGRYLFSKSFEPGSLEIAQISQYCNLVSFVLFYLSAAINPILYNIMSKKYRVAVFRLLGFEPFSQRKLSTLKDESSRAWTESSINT

[7] = target: 5-hydroxytryptamine receptor 2A (Homo sapiens, UniProt P28223); format: functional, cell-based
Sequence of 5-hydroxytryptamine receptor 2A (P28223 whole entry): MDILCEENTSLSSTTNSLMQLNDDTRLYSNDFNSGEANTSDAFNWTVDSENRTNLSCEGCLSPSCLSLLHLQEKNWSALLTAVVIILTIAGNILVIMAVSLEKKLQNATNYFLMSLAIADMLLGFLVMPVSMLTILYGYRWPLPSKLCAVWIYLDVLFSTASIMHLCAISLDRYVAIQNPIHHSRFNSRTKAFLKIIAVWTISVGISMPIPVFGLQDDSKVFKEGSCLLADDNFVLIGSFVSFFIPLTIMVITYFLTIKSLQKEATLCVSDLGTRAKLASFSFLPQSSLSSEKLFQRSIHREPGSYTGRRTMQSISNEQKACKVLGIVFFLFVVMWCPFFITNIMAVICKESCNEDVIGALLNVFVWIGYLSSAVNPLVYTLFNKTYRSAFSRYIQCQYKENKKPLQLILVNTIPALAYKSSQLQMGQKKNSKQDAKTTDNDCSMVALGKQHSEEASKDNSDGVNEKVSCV

[8] = target: 5-hydroxytryptamine receptor 2B (Homo sapiens, UniProt P41595); format: functional, cell-based
Sequence of 5-hydroxytryptamine receptor 2B (P41595 whole entry): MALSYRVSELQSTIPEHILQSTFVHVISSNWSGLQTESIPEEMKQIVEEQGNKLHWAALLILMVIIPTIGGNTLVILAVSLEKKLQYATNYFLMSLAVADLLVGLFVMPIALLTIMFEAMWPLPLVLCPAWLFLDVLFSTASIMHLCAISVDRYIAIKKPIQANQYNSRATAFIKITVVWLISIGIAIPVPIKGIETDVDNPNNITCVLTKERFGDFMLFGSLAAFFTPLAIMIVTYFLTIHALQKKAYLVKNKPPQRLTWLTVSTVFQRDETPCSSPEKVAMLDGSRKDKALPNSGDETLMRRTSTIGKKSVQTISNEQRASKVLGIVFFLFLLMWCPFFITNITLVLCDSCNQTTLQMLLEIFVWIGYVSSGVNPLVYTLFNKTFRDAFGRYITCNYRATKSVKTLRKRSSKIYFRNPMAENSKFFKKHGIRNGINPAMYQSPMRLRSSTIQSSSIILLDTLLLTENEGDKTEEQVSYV

[9] = target: T5, 5-hydroxytryptamine receptor 2C (Homo sapiens, UniProt P28335)
T5 sequence (P28335 whole entry): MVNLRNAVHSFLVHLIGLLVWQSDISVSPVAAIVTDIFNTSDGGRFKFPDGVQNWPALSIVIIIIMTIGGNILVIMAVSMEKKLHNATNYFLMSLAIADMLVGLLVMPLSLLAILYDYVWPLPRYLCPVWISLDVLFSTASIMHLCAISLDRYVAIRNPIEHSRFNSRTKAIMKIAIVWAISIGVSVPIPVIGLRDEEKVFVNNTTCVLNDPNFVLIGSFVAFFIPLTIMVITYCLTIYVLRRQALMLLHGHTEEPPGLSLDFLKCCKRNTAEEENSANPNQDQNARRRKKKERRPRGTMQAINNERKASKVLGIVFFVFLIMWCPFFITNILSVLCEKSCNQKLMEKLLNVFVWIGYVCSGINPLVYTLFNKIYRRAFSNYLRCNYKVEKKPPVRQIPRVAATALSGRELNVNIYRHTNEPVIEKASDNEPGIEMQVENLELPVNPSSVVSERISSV

Motilin receptor = Motilin receptor (Homo sapiens, UniProt O43193)
Sequence of Motilin receptor (O43193 whole entry): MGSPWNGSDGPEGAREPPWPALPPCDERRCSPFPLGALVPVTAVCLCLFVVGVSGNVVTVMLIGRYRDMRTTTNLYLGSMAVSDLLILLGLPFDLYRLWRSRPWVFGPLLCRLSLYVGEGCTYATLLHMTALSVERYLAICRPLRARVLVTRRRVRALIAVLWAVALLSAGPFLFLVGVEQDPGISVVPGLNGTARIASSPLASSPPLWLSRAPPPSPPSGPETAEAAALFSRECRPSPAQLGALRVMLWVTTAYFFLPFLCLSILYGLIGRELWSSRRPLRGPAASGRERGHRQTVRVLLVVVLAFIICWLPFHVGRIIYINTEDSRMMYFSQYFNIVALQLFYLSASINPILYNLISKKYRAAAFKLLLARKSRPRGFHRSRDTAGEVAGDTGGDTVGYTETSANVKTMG

[10] = target: Sodium-dependent dopamine transporter (Homo sapiens, UniProt Q01959)
Sequence of Sodium-dependent dopamine transporter (Q01959 whole entry): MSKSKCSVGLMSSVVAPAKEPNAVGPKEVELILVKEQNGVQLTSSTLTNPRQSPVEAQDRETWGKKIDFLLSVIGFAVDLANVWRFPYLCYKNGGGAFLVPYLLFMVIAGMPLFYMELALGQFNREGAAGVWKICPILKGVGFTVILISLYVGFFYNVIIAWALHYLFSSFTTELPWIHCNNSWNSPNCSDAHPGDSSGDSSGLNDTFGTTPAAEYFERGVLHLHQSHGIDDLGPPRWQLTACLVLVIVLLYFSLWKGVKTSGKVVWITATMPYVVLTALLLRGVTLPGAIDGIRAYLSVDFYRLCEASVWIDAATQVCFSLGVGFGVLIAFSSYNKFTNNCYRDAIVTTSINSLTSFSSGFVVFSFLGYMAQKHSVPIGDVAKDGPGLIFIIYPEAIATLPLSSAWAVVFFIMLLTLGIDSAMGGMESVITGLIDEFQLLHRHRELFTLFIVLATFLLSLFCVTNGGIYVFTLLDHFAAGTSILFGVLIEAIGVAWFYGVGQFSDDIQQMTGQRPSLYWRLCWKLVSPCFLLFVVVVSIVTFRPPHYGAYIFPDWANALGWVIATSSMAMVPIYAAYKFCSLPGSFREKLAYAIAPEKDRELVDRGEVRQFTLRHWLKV

[11] = target: Sodium-dependent serotonin transporter (Homo sapiens, UniProt P31645)
Sequence of Sodium-dependent serotonin transporter (P31645 whole entry): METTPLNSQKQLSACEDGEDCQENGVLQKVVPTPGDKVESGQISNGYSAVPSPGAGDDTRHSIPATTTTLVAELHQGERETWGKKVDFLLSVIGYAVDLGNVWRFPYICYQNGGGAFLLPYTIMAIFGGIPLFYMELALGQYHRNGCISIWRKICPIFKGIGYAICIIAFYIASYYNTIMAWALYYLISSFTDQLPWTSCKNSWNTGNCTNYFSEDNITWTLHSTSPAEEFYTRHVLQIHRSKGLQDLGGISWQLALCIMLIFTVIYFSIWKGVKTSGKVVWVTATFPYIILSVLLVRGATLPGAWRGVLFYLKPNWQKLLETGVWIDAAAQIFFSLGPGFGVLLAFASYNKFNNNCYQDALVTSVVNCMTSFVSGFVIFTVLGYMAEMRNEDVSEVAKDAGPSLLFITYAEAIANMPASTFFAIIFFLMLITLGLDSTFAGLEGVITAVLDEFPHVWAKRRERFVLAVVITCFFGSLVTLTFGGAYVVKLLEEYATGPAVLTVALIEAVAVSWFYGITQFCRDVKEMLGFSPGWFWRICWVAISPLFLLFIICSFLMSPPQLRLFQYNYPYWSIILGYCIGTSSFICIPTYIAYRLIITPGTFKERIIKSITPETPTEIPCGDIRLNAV

D(3) dopamine receptor = D(3) dopamine receptor (Homo sapiens, UniProt P35462)
Sequence of D(3) dopamine receptor (P35462 whole entry): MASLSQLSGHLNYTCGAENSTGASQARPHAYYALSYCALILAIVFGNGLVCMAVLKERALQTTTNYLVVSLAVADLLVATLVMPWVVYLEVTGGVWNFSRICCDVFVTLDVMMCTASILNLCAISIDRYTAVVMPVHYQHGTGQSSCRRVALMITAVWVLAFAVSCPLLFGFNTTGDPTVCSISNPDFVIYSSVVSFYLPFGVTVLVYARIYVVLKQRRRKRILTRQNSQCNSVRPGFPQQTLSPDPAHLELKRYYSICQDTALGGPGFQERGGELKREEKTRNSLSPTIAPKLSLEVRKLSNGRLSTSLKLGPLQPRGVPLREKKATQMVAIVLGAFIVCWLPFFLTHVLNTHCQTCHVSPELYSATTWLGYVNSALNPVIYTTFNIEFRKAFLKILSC
Note: assay procedure not described here.

Sequence of Adenosine receptor A2a (P29274 whole entry): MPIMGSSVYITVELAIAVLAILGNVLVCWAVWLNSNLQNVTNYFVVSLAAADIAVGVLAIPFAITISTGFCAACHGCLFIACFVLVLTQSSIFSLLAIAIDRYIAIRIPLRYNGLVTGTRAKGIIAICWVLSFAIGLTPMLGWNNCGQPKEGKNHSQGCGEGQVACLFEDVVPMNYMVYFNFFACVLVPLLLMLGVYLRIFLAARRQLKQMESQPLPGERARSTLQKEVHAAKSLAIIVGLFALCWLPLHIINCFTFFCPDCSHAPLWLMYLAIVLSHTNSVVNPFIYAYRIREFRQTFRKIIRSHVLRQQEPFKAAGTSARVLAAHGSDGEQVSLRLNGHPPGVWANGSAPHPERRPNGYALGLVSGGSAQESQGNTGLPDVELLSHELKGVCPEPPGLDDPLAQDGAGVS

Row | Structure (SMILES) | AC50 (Adenosine receptor A2a) [µM] | AC50 [1] [µM] | AC50 [2] [µM] | AC50 [3] [µM] | AC50 [4] [µM] | AC50 (Cannabinoid receptor 1) [µM] | AC50 [5] [µM] | AC50 [6] [µM] | AC50 [7] [µM] | AC50 [8] [µM] | AC50 [9] [µM] | AC50 (Motilin receptor) [µM] | AC50 [10] [µM] | AC50 [11] [µM] | AC50 (D(3) dopamine receptor) [µM]
1 | CCCCc1ncc(/C=C(\Cc2cccs2)C(=O)O)n1Cc1ccc(C(=O)O)cc1 [EPROSARTAN] | > 10 | > 10 | > 10 | > 10 | > 10 | > 30 | > 10 | > 10 | > 30 | > 10 | > 10 | > 10 | > 30 | > 30 | > 10
2 | COc1ccc(CCN(C)CCCC(C#N)(c2cc(OC)c(OC)c(OC)c2)C(C)C)cc1OC (stereo not given) [GALLOPAMIL] | > 30 | 7.6 | > 30 | > 30 | > 30 | > 30 | > 30 | > 30 | > 30 | > 30 | 5 | > 30 | > 30 | 3 | 3.3
3 | CC(C)C(=O)c1c(C(C)C)nn2ccccc12 [IBUDILAST] | 17 | > 30 | > 30 | > 30 | > 30 | > 30 | > 30 | > 30 | > 30 | > 30 | > 30 | > 30 | > 30 | > 30 | > 30
4 | CCC(C(=O)O)c1ccc(N2Cc3ccccc3C2=O)cc1 (stereo not given) [INDOBUFEN] | > 30 | > 30 | > 30 | > 30 | > 30 | > 30 | > 30 | > 30 | > 30 | > 30 | > 30 | > 30 | > 30 | > 30 | > 30
5 | CC(C)OC(=O)CCC/C=C\C[C@@H]1[C@@H](CC[C@@H](O)CCc2ccccc2)[C@H](O)C[C@@H]1O [LATANOPROST] | > 30 | > 30 | > 30 | > 30 | > 30 | > 30 | > 30 | > 30 | > 30 | > 30 | > 30 | > 30 | > 30 | > 30 | > 30
6 | CN1C(=O)C(O)N=C(c2ccccc2Cl)c2cc(Cl)ccc21 (stereo not given) [LORMETAZEPAM] | > 30 | > 30 | > 30 | > 30 | 17 | > 30 | > 30 | > 30 | > 30 | > 30 | > 30 | > 30 | > 30 | > 30 | > 30
